Tests used:
MDA-MB-453 [1] = details: 72 h
Summary of the method: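 Viability of breast cancer cell lines was measured with CellTiter-Blue after 72 h of incubation on compound-loaded 384-well plates. Cells were seeded in 20 µl onto compound dissolved in 5 µl medium, and 2.5 µl reagent was added for 2 h at 37 °C before reading at 560/590 nm. EC50 was fitted from percent-inhibition dose-response data censored at the highest concentration, normalised per plate to vehicle and a positive kill control, with zero drug sensitivity score rows dropped.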

BT-474 = assay: normalised viability (% of control), CellTiter-Blue; higher = more viable cells (about 100 = DMSO control); details: incubation time: 72 h
Summary of the method: (§1)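 After 72 h on compound-loaded 384-well plates, breast cancer cell lines received 2.5 µl CellTiter-Blue reagent for 2 h at 37 °C. Fluorescence at 560/590 nm was scaled per plate so that vehicle was 100 and a positive kill control was 0. The value stands for normalised viability at a single listed concentration of the series.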

BT-549 = assay: as above; details: incubation time: 72 h
Summary of the method: as §1

CAL-120 [2] = assay: as above; details: incubation time: 72 h
Summary of the method: as §1

CAL-148 [3] = assay: as above; details: incubation time: 72 h
Summary of the method: as §1

CAL-51 [4] = assay: as above; details: incubation time: 72 h
Summary of the method: as §1

CAL-85-1 [5] = assay: as above; details: incubation time: 72 h
Summary of the method: as §1

DU-4475 [6] = assay: as above; details: incubation time: 72 h
Summary of the method: as §1

HCC1143 = assay: as above; details: incubation time: 72 h
Summary of the method: as §1

HCC1599 [7] = assay: as above; details: incubation time: 72 h
Summary of the method: as §1

HCC1937 = assay: as above; details: incubation time: 72 h
Summary of the method: as §1

HDQ-P1 = assay: as above; details: incubation time: 72 h
Summary of the method: as §1

Hs578T [8] = assay: as above; details: incubation time: 72 h
Summary of the method: as §1

MDA-MB-231 = assay: as above; details: incubation time: 72 h
Summary of the method: as §1

MDA-MB-436 [9] = assay: as above; details: incubation time: 72 h
Summary of the method: as §1

MDA-MB-453 [10] = assay: as above; details: incubation time: 72 h
Summary of the method: as §1

MDA-MB-468 = assay: as above; details: incubation time: 72 h
Summary of the method: as §1

MFM-223 = assay: as above; details: incubation time: 72 h
Summary of the method: as §1

SK-BR-3 = assay: as above; details: incubation time: 72 h
Summary of the method: as §1

CAL-148 [11] = assay: as above; details: incubation time: 72 h; remark: listed apart in the source
Summary of the method: as §1

CAL-51 [12] = assay: as above; details: incubation time: 72 h; remark: listed apart in the source
Summary of the method: as §1

CAL-85-1 [13] = assay: as above; details: incubation time: 72 h; remark: listed apart in the source
Summary of the method: as §1

DU-4475 [14] = assay: as above; details: incubation time: 72 h; remark: listed apart in the source
Summary of the method: as §1

MDA-MB-453 [15] = assay: as above; details: incubation time: 72 h; remark: listed apart in the source
Summary of the method: as §1

CAL-120 [16] = assay: drug sensitivity score (DSS), CellTiter-Blue viability (DSS (AUC-based score)); higher = stronger viability inhibition; extreme values may be limits of the assay; details: incubation time: 72 h
Protocol: (§2)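 DSRT with the CellTiter-Blue (resazurin reduction) viability readout, fluorescence 560/590 nm, 72 h incubation. Plates were normalised to DMSO and benzethonium chloride controls. DSS is computed from the area under the fitted dose-response curve (5 or 9 concentrations).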

HCC1599 [17] = assay: as above; details: incubation time: 72 h
Protocol: as §2

Hs578T [18] = assay: as above; details: incubation time: 72 h
Protocol: as §2

MDA-MB-436 [19] = assay: as above; details: incubation time: 72 h
Protocol: as §2

`Cn1c(=O)n(-c2ccc(C(C)(C)C#N)cc2)c2c3cc(-c4cnc5ccccc5c4)ccc3ncc21` [NVP-BEZ235] was tested, and the “EC50, CellTiter-Blue viability” value (MDA-MB-453 [1]) was 8.31 nM, the normalised viability (BT-474; 1000 nM) was 41% and the normalised viability (BT-549; 1000 nM) was 18.2%. The normalised viability (CAL-120 [2]; 1000 nM) was 14.4%, the normalised viability (CAL-148 [3]; 10 nM) was 73.5% and the normalised viability (CAL-51 [4]; 10 nM) was 54.6%. It also gave a normalised viability (CAL-85-1 [5]; 10 nM) of 68.6%, a normalised viability (DU-4475 [6]; 10 nM) of 107% and a normalised viability (HCC1143; 1000 nM) of 30.1%. For the same molecule, the normalised viability (HCC1599 [7]; 1000 nM) was 55.2%, the normalised viability (HCC1937; 1000 nM) was 45.5% and the normalised viability (HDQ-P1; 10 nM) was 69%. It also gave a normalised viability (Hs578T [8]; 1000 nM) of 24.7%, a normalised viability (MDA-MB-231; 1000 nM) of 27.1% and a normalised viability (MDA-MB-436 [9]; 1000 nM) of 63.2%. For the same molecule, the normalised viability (MDA-MB-453 [10]; 10 nM) was 49.9%, the normalised viability (MDA-MB-468; 1000 nM) was 28.1% and the normalised viability (MFM-223; 1000 nM) was 24.1%. It also gave a normalised viability (SK-BR-3; 1000 nM) of 15.6%, a normalised viability (CAL-148 [11]; 1000 nM) of 0.2% and a normalised viability (CAL-51 [12]; 1000 nM) of 8.61%. It also gave a normalised viability (CAL-85-1 [13]; 1000 nM) of 27.7%, a normalised viability (DU-4475 [14]; 1000 nM) of 5.52% and a normalised viability (MDA-MB-453 [15]; 1000 nM) of 13.8%. It also gave a drug sensitivity score (CAL-120 [16]) of 20.4, a drug sensitivity score (HCC1599 [17]) of 8.13 and a drug sensitivity score (Hs578T [18]) of 18.4. It also gave a drug sensitivity score (MDA-MB-436 [19]) of 5.52.
`CN1CCN(CCOc2cc(OC3CCOCC3)c3c(Nc4c(Cl)ccc5c4OCO5)ncnc3c2)CC1` [Saracatinib] was tested, and the “EC50, CellTiter-Blue viability” value (MDA-MB-453 [1]) was 2540 nM, the normalised viability (BT-474; 10000 nM) was 42.4% and the normalised viability (BT-549; 10000 nM) was 47.4%. For the same molecule, the normalised viability (CAL-120 [2]; 10000 nM) was 61.1%, the normalised viability (CAL-148 [3]; 100 nM) was 85.3% and the normalised viability (CAL-51 [4]; 100 nM) was 99.1%. The normalised viability (CAL-85-1 [5]; 100 nM) was 98%, the normalised viability (DU-4475 [6]; 100 nM) was 98.9% and the normalised viability (HCC1143; 10000 nM) was 46.2%. The normalised viability (HCC1599 [7]; 10000 nM) was 83.7%, the normalised viability (HCC1937; 10000 nM) was 116% and the normalised viability (HDQ-P1; 100 nM) was 111%. It also gave a normalised viability (Hs578T [8]; 10000 nM) of 69.7%, a normalised viability (MDA-MB-231; 10000 nM) of 60.6% and a normalised viability (MDA-MB-436 [9]; 10000 nM) of 72.1%. For the same molecule, the normalised viability (MDA-MB-453 [10]; 100 nM) was 105%, the normalised viability (MDA-MB-468; 10000 nM) was 57.8% and the normalised viability (MFM-223; 10000 nM) was 77.1%. The normalised viability (SK-BR-3; 10000 nM) was 39.7%, the normalised viability (CAL-148 [11]; 10000 nM) was 62% and the normalised viability (CAL-51 [12]; 10000 nM) was 38.4%. It also gave a normalised viability (CAL-85-1 [13]; 10000 nM) of 23.5%, a normalised viability (DU-4475 [14]; 10000 nM) of 133% and a normalised viability (MDA-MB-453 [15]; 10000 nM) of 35.6%. It also gave a drug sensitivity score (CAL-120 [16]) of 4.64, a drug sensitivity score (HCC1599 [17]) of 0.195 and a drug sensitivity score (Hs578T [18]) of 0. For the same molecule, the drug sensitivity score (MDA-MB-436 [19]) was 0.375.
With `CN(C)C[C@@H]1CCn2cc(c3ccccc32)C2=C(C(=O)NC2=O)c2cn(c3ccccc23)CCO1` [Ruboxistaurin] the “EC50, CellTiter-Blue viability” value (MDA-MB-453 [1]) was 4240 nM, the normalised viability (BT-474; 10000 nM) was 3.5% and the normalised viability (BT-549; 10000 nM) was 43.7%. It also gave a normalised viability (CAL-120 [2]; 10000 nM) of 38.9%, a normalised viability (CAL-148 [3]; 100 nM) of 111% and a normalised viability (CAL-51 [4]; 100 nM) of 88.8%. It also gave a normalised viability (CAL-85-1 [5]; 100 nM) of 115%, a normalised viability (DU-4475 [6]; 100 nM) of 95.6% and a normalised viability (HCC1143; 10000 nM) of 94%. It also gave a normalised viability (HCC1599 [7]; 10000 nM) of 58.1%, a normalised viability (HCC1937; 10000 nM) of 35.1% and a normalised viability (HDQ-P1; 100 nM) of 83.1%. It also gave a normalised viability (Hs578T [8]; 10000 nM) of 42.9%, a normalised viability (MDA-MB-231; 10000 nM) of 27.6% and a normalised viability (MDA-MB-436 [9]; 10000 nM) of 29.2%. The normalised viability (MDA-MB-453 [10]; 100 nM) was 93%, the normalised viability (MDA-MB-468; 10000 nM) was 8.88% and the normalised viability (MFM-223; 10000 nM) was 30.1%. It also gave a normalised viability (SK-BR-3; 10000 nM) of 4%, a normalised viability (CAL-148 [11]; 10000 nM) of 24.3% and a normalised viability (CAL-51 [12]; 10000 nM) of 27.4%. It also gave a normalised viability (CAL-85-1 [13]; 10000 nM) of 84.3%, a normalised viability (DU-4475 [14]; 10000 nM) of 1.01% and a normalised viability (MDA-MB-453 [15]; 10000 nM) of 0.78%. The drug sensitivity score (CAL-120 [16]) was 1.65, the drug sensitivity score (HCC1599 [17]) was 3.54 and the drug sensitivity score (Hs578T [18]) was 1.19. The drug sensitivity score (MDA-MB-436 [19]) was 10.7.

From the supplement of paper PMC4862054
